Reference: US20050009840A1 (SUGEN, INC., priority 2003, published 2005)

Target: T1, Met kinase domain (GST fusion protein) (Homo sapiens, UniProt P08581)
T1 construct: Purified GST fusion protein containing the Met kinase domain
Test: Met transphosphorylation assay (ELISA, poly(glu-tyr) substrate);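 note: Cell-free ELISA with plate-bound poly(Glu:Tyr 4:1) phosphorylated by GST-fused Met kinase domain plus ATP and Mn2+, phosphotyrosine detected by anti-phosphotyrosine antibody with HRP and ABTS read-out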
Format: biochemical
Conditions: Table 2; read-out: Met IC50

T1 sequence (P08581 1078-1345 limits assumed): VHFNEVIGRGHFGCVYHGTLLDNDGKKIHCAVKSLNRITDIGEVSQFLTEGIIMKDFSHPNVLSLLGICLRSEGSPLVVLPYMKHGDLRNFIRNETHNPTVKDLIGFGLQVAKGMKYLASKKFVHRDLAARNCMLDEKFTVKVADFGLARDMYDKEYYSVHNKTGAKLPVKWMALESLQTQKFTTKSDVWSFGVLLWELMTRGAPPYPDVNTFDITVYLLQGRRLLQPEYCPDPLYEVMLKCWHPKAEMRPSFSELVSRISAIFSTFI

| Structure (SMILES) | IC50 |
| --- | --- |
| CC(Oc1cc(-c2cccc(C(=O)NCCCN3CCCC3)c2)cnc1N)c1c(Cl)ccc(F)c1Cl (stereo not drawn) [Example I-320, 3-{6-Amino-5-[1-(2,6-dichloro-3-fluoro-phenyl)-ethoxy]-pyridin-3-yl}-N-(3-pyrrolidin-1-yl-propyl)-benzamide] | 0.13 µM |
| CC(Oc1cc(-c2cccc(C(=O)NCCN3CCOCC3)c2)cnc1N)c1c(Cl)ccc(F)c1Cl (stereo not drawn) [Example I-321, 3-{6-Amino-5-[1-(2,6-dichloro-3-fluoro-phenyl)-ethoxy]-pyridin-3-yl}-N-(2-morpholin-4-yl-ethyl)-benzamide] | 0.18 µM |
| CC(Oc1cc(-c2ccc(NS(=O)(=O)CCNC3CC3)cc2)cnc1N)c1c(F)ccc(F)c1Cl (stereo not drawn) [Example I-328, 2-Cyclopropylamino-ethanesulfonic acid (4-{6-amino-5-[1-(2-chloro-3,6-difluoro-phenyl)-ethoxy]-pyridin-3-yl}-phenyl)-amide] | 0.16 µM |
| CC(Oc1cc(-c2ccc(C(=O)NCCN3CCOCC3)cc2)cnc1N)c1c(F)ccc(F)c1Cl (stereo not drawn) [Example I-331, 4-{6-Amino-5-[1-(2-chloro-3,6-difluoro-phenyl)-ethoxy]-pyridin-3-yl}-N-(2-morpholin-4-yl-ethyl)-benzamide] | 0.13 µM |
| CC(Oc1cc(-c2cccc(C(=O)N3C[C@@H](C)N[C@@H](C)C3)c2)cnc1N)c1c(F)ccc(F)c1Cl (stereo partly drawn) [Example I-343] | 0.16 µM |
| CC(Oc1cc(-c2cccc(C(=O)NC3CCN(C)CC3)c2)cnc1N)c1c(F)ccc(F)c1Cl (stereo not drawn) [Example I-345, 3-{6-Amino-5-[1-(2-chloro-3,6-difluoro-phenyl)-ethoxy]-pyridin-3-yl}-N-(1-methyl-piperidin-4-yl)-benzamide] | 0.2 µM |
| CC(Oc1cc(-c2cccc(C(=O)N3CCN(C)CC3)c2)cnc1N)c1c(F)ccc(F)c1Cl (stereo not drawn) [Example I-346, (3-{6-Amino-5-[1-(2-chloro-3,6-difluoro-phenyl)-ethoxy]-pyridin-3-yl}-phenyl)-(4-methyl-piperazin-1-yl)-pnl methanone] | 0.19 µM |
| CC(Oc1cc(-c2cccc(C(=O)NCCCN3CCCC3)c2)cnc1N)c1c(F)ccc(F)c1Cl (stereo not drawn) [Example I-347, 3-{6-Amino-5-[1-(2-chloro-3,6-difluoro-phenyl)-ethoxy]-pyridin-3-yl}-N-(3-pyrrolidin-1-yl-propyl)-benzamide] | 0.21 µM |
| CC(Oc1cc(-c2cccc(C(=O)NCCN3CCCC3)c2)cnc1N)c1c(F)ccc(F)c1Cl (stereo not drawn) [Example I-348, 3-{6-Amino-5-[1-(2-chloro-3,6-difluoro-phenyl)-ethoxy]-pyridin-3-yl}-N-(2-pyrrolidin-1-yl-ethyl)-benzamide] | 0.2 µM |
| CC(Oc1cc(-c2cccc(C(=O)N3CC[C@H](N)C3)c2)cnc1N)c1c(F)ccc(F)c1Cl (stereo partly drawn) [Example I-349, (3-{6-Amino-5-[1-(2-chloro-3,6-difluoro-phenyl)-ethoxy]-pyridin-3-yl}-phenyl)-((S)-3-amino-pyrrolidin-1-yl)-methanone] | 0.13 µM |
| CC(Oc1cc(-c2cccc(C(=O)NCCN3CCOCC3)c2)cnc1N)c1c(F)ccc(F)c1Cl (stereo not drawn) [Example I-350, 3-{6-Amino-5-[1-(2-chloro-3,6-difluoro-phenyl)-ethoxy]-pyridin-3-yl}-N-(2-morpholin-4-yl-ethyl)-benzamide] | 0.39 µM |
| CC(Oc1cc(-c2cccc(C(=O)N3CCC[C@@H]3CN3CCCC3)c2)cnc1N)c1c(F)ccc(F)c1Cl (stereo partly drawn) [Example I-351] | 0.23 µM |
| CC(Oc1cc(-c2cccc(C(=O)N3CCC[C@H]3CN3CCCC3)c2)cnc1N)c1c(F)ccc(F)c1Cl (stereo partly drawn) [Example I-352] | 0.15 µM |
| CC(Oc1cc(-c2ccc(OCCN3CCOCC3)cc2)cnc1N)c1c(F)ccc(F)c1Cl (stereo not drawn) [Example I-353, 3-[1-(2-Chloro-3,6-difluoro-phenyl)-ethoxy]-5-[4-(2-morpholin-4-yl-ethoxy)-phenyl]-pyridin-2-ylamine] | 0.23 µM |
| CC(Oc1cc(-c2cccc(OCCN3CCOCC3)c2)cnc1N)c1c(F)ccc(F)c1Cl (stereo not drawn) [Example I-354, 3-[1-(2-Chloro-3,6-difluoro-phenyl)-ethoxy]-5-[3-(2-morpholin-4-yl-ethoxy)-phenyl]-pyridin-2-ylamine] | 0.22 µM |
| CC(Oc1cc(-c2ccc(OCCN3CCOCC3)cc2)cnc1N)c1c(Cl)ccc(F)c1Cl (stereo not drawn) [Example I-357, 3-[1-(2,6-Dichloro-3-fluoro-phenyl)-ethoxy]-5-[4-(2-morpholin-4-yl-ethoxy)-phenyl]-pyridin-2-ylamine] | 0.13 µM |
| CC(Oc1cc(-c2cccc(OCCN3CCOCC3)c2)cnc1N)c1c(Cl)ccc(F)c1Cl (stereo not drawn) [Example I-358, 3-[1-(2,6-Dichloro-3-fluoro-phenyl)-ethoxy]-5-[3-(2-morpholin-4-yl-ethoxy)-phenyl]-pyridin-2-ylamine] | 0.22 µM |

Stronger by IC50, values ahead:

| IC50 | Structure (SMILES) |
| --- | --- |
| 0.12 µM | CC(Oc1cc(-c2cccc(C(=O)N3CC[C@@H](N)C3)c2)cnc1N)c1c(F)ccc(F)c1Cl (stereo partly drawn) [Example I-344, (3-{6-Amino-5-[1-(2-chloro-3,6-difluoro-phenyl)-ethoxy]-pyridin-3-yl}-phenyl)-((R)-3-amino-pyrrolidin-1-yl)-methanone] |
| 0.1 µM | CC(Oc1cc(-c2cccc(C(=O)NCCN3CCCC3)c2)cnc1N)c1c(Cl)ccc(F)c1Cl (stereo not drawn) [Example I-319, 3-{6-Amino-5-[1-(2,6-dichloro-3-fluoro-phenyl)-ethoxy]-pyridin-3-yl}-N-(2-pyrrolidin-1-yl-ethyl)-benzamide] |
| 0.095 µM | CCN(CC)CCS(=O)(=O)Nc1ccc(-c2cnc(N)c(OC(C)c3c(F)ccc(F)c3Cl)c2)cc1 (stereo not drawn) [Example I-329, 2-Diethylamino-ethanesulfonic acid (4-{6-amino-5-[1-(2-chloro-3,6-difluoro-phenyl)-ethoxy]-pyridin-3-yl}-phenyl)-amide] |
| 0.093 µM | CC(Oc1cc(-c2ccc(NS(=O)(=O)CCN3CC[C@@H](O)C3)cc2)cnc1N)c1c(F)ccc(F)c1Cl (stereo partly drawn) [Example I-327] |
| 0.09 µM | CC(Oc1cc(-c2ccc(C(=O)N3C[C@@H](C)N[C@@H](C)C3)cc2)cnc1N)c1c(F)ccc(F)c1Cl (stereo partly drawn) [Example I-335, (4-{6 Amino-5-[1-(2-chloro-3,6-difluoro-phenyl)-ethoxy]-pyridin-3-yl}-phenyl)-((3R,5S)-3,5-dimethyl-piperazin-1-yl)-methanone] |
| 0.09 µM | CC(Oc1cc(-c2ccc(C(=O)NCCCN3CCCC3)cc2)cnc1N)c1c(F)ccc(F)c1Cl (stereo not drawn) [Example I-336, 4-{6-Amino-5-[1-(2-chloro-3,6-difluoro-phenyl)-ethoxy]-pyridin-3-yl}-N-(3-pyrrolidin-1-yl-propyl)-benzamide] |
| 0.089 µM | CC(Oc1cc(-c2ccc(NS(=O)(=O)CCN3CCCCC3)cc2)cnc1N)c1c(Cl)ccc(F)c1Cl (stereo not drawn) [Example I-325] |
| 0.089 µM | CC(Oc1cc(-c2ccc(C(=O)N3CC[C@@H](N)C3)cc2)cnc1N)c1c(F)ccc(F)c1Cl (stereo partly drawn) [Example I-334, (4-{6-Amino-5-[1-(2-chloro-3,6-difluoro-phenyl)-ethoxy]-pyridin-3-yl}-phenyl)-((R)-3-amino-pyrrolidin-1-yl)-methanone] |
| 0.086 µM | CC(Oc1cc(-c2ccc(C(=O)NCCN3CCCC3)cc2)cnc1N)c1c(F)ccc(F)c1Cl (stereo not drawn) [Example I-340, 4-{6-Amino-5-[1-(2-chloro-3,6-difluoro-phenyl)-ethoxy]-pyridin-3-yl}-N-(2-pyrrolidin-1-yl-ethyl)-benzamide] |
| 0.08 µM | CCN(CC)CCS(=O)(=O)Nc1ccc(-c2cnc(N)c(OC(C)c3c(Cl)ccc(F)c3Cl)c2)cc1 (stereo not drawn) [Example I-323, 2-Diethylamino-ethanesulfonic acid (4-{6-amino-5-[1-(2,6-dichloro-3-fluoro-phenyl)-ethoxy]-pyridin-3-yl}-phenyl)-amide] |
| 0.079 µM | CC(Oc1cc(-c2ccc(C(=O)NC3CCN(C)CC3)cc2)cnc1N)c1c(F)ccc(F)c1Cl (stereo not drawn) [Example I-332, 4-{6-Amino-5-[1-(2-chloro-3,6-difluoro-phenyl)-ethoxy]-pyridin-3-yl}-N-(1-methyl-piperidin-4-yl)-benzamide] |
| 0.079 µM | CC(Oc1cc(-c2ccc(OCCC3CCCN3C)cc2)cnc1N)c1c(Cl)ccc(F)c1Cl (stereo not drawn) [Example I-356] |
| 0.077 µM | CC(Oc1cc(-c2ccc(C(=O)N3CCN(C)CC3)cc2)cnc1N)c1c(F)ccc(F)c1Cl (stereo not drawn) [Example I-338, (4-{6-Amino-5-[1-(2-chloro-3,6-difluoro-phenyl)-ethoxy]-pyridin-3-yl}-phenyl)-(4-methyl-piperazin-1-yl)-methanone] |
| 0.075 µM | CC(Oc1cc(-c2ccc(NS(=O)(=O)CCNCC3CC3)cc2)cnc1N)c1c(Cl)ccc(F)c1Cl (stereo not drawn) [Example I-326, 2-(Cyclopropylmethyl-amino)-ethanesulfonic acid (4-{6-amino-5-[1-(2,6-dichloro-3-fluoro-phenyl)-ethoxy]-pyridin-3-yl}-phenyl)-amide] |
| 0.075 µM | CC(Oc1cc(-c2ccc(C(=O)N3CC[C@H](N)C3)cc2)cnc1N)c1c(F)ccc(F)c1Cl (stereo partly drawn) [Example I-341, (4-{6-Amino-5-[1-(2-chloro-3,6-difluoro-phenyl)-ethoxy]-pyridin-3-yl}-phenyl)-((S)-3-amino-pyrrolidin-1-yl)-methanone] |
| 0.071 µM | CC(Oc1cc(-c2cccc(C(=O)N3CCC(N4CCCC4)CC3)c2)cnc1N)c1c(Cl)ccc(F)c1Cl (stereo not drawn) [Example I-322, (3-{6-Amino-5-[1-(2,6-dichloro-3-fluoro-phenyl)-ethoxy]-pyridin-3-yl}-phenyl)-(4-pyrrolidin-1-yl-piperidin-1-yl)-methanone] |
| 0.068 µM | CC(Oc1cc(-c2ccc(OCCN3CCCC3)cc2)cnc1N)c1c(Cl)ccc(F)c1Cl (stereo not drawn) [Example I-355, 3-[1-(2,6-Dichloro-3-fluoro-phenyl)-ethoxy]-5-[4-(2-pyrrolidin-1-yl-ethoxy)-phenyl]-pyridin-2-ylamine] |
| 0.045 µM | CC(Oc1cc(-c2ccc(OCC(O)CN3CCOCC3)cc2)cnc1N)c1c(Cl)ccc(F)c1Cl (stereo not drawn) [Example I-359, 1-(4-{6-Amino-5-[1-(2,6-dichloro-3-fluoro-phenyl)-ethoxy]-pyridin-3-yl}-phenoxy)-3-morpholin-4-yl-propan-2-ol] |
| 0.033 µM | CCN(CC)CCOc1ccc(-c2cnc(N)c(OC(C)c3c(Cl)ccc(F)c3Cl)c2)cc1 (stereo not drawn) [Example I-360, 3-[1-(2,6-Dichloro-3-fluoro-phenyl)-ethoxy]-5-[4-(2-diethylamino-ethoxy)-phenyl]-pyridin-2-ylamine] |
